Assay results taken from PMC7318222, “A Family of Water‐Immiscible, Dipolar Aprotic, Diamide Solvents from Succinic Acid” (Chemsuschem, 2020).

Legend:
[1] = target: T1, PXR (Homo sapiens, UniProt O75469); experiment: PXR CALUX reporter gene assay; format: cell-based; set-up: key: –: no effect observed up to the highest test concentration; conditions: PC10, 24 h exposure
T1 construct: expression construct for the full-length human receptor under investigation; expressed in transfected cells; host or cells: human U2-OS cells (ATCC HTB-96), stably transfected
T1 sequence (O75469 1-434): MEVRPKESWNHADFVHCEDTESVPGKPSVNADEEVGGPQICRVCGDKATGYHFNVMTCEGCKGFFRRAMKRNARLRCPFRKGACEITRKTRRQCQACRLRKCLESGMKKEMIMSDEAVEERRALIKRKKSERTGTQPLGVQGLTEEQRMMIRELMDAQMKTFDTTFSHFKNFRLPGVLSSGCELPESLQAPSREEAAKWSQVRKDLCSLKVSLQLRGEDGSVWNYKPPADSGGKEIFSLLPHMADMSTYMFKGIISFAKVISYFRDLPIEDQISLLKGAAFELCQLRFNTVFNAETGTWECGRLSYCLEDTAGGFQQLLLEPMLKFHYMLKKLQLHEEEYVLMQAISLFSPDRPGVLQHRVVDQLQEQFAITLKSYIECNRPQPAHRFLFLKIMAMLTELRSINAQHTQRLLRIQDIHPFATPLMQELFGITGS
Text: PXR activation leads to the induction of metabolic enzymes, resulting in enhanced metabolism of a wide range of compounds. […]
Polyarylethersulfone of 55,000 Da were obtained from INGE.BASF, Germany. The CALUX cell lines have been described previously.[1] They are based on human U2-OS cells (ATCC, HTB-96) stably transfected with an expression construct for the full-length human receptor under investigation, and a reporter construct consisting of multimerized responsive elements for the cognate receptor coupled to a minimal promoter element (TATA) and a luciferase gene. Cells were maintained as described previously,[2] using cell culture media and supplements from Fisher Scientific as described in the experimental procedures section. […]
(§1) In vitro reporter gene assays
(§2) The automated CALUX assays were carried out similarly as described earlier,[12] with some adaptations. In brief, the assay was performed in CO2 independent medium (Fisher Scientific, […]
(§3) supplement (Fisher Scientific, 11574466), 10 U/mL penicillin and 10 µg/mL streptomycin. A cell suspension in assay medium was made of 1 × 10^5cells/mL, and white 384-wells plates were seeded with 30 µl cell suspension/well. After 24 h, exposure medium was prepared. A dilution series in 0.5log unit increments of each test compound (in DMSO) was added to a 96-wells plate containing assay medium (2% v/v). Of this exposure mixture, 30 µl was added to the assay plates containing the CALUX cells, resulting in a final DMSO concentration of 1%. Additionally, DMSO blanks and a full dose response curve of the relevant reference compound were included on each plate. All samples were tested in triplicate. The preparation of the compound dilution series as well as the exposure of the cells were performed on a Hamilton StarLET liquid handling robot coupled to a Cytomat incubator.
(§4) Directly after exposure, plates were sealed with non-breathing plate seals (Plate sealer, easy seal transparent; Greiner-Bio-One, 676001). After 24 h the exposure medium was removed using an EL406 washer-dispenser (BioTek) and 10 µl/well triton lysisbuffer was added by the EL406.
Subsequently, the luciferase signal was measured in a luminometer (InfinitePro coupled to a Connect Stacker, both TECAN). In order to be able to detect receptor antagonism, several assays were also performed in antagonistic mode. The assay procedure was as described above, with the only exception that the EC50 concentration of the reference agonist was present during the exposure.
The luminometer data was analysed as follows; the average of the triplicate wells was determined, and the average blank (DMSO) value was subtracted. For receptor-based assays the maximum response elicited by the reference compound was set to 100% (full receptor- or pathway activation), and the other values were scaled accordingly. GraphPad Prism was used to fit a sigmoidal curve through the data (four parameters, variable slope). […] For antagonist- and cytotoxicity experiments, PC20 values were determined instead, which was defined as the concentration where the test compound causes a 20% decrease in the basal signal, which was […]
(§5) curve, the signal induction above background (DMSO) was determined, and the concentration where the compound elicited a 1.5-fold increase above background was used as LEC.

[2] = target: T2, PPARγ (Homo sapiens, UniProt P37231); experiment: PPARγ CALUX reporter gene assay; format: cell-based; set-up: key: –: no effect observed up to the highest test concentration; conditions: PC10, 24 h exposure
T2 construct: expression construct for the full-length human receptor under investigation; expressed in transfected cells; host or cells: human U2-OS cells (ATCC HTB-96), stably transfected
T2 sequence (P37231 1-505): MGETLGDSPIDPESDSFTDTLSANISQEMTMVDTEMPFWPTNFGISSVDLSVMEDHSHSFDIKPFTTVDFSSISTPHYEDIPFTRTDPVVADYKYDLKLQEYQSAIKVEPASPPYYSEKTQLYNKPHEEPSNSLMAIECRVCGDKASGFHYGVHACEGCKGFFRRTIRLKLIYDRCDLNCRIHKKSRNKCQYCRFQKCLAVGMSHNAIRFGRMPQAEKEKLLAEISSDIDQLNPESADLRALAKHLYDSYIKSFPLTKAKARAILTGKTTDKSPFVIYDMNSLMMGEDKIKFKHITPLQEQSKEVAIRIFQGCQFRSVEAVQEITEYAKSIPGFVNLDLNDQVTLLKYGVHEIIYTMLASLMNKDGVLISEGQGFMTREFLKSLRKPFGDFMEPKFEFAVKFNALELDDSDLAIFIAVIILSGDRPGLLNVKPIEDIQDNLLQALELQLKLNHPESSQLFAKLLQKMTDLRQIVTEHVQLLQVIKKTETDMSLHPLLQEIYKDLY
Text: 2-methylimidazole 99.0%, zinc(II) nitrate hexahydrate ≥99.0%, para-cymene 99.0%, 1,4-dioxane 99.8% (anhydrous), 4-nitroaniline ≥99.0%, 1-octanol ≥99.0%, diglyme ≥99.0%, DMSO-d6 (99.8% D) and chloroform-d (99.8% D) were purchased from Sigma-Aldrich. Toluene ≥99.0%, hexane ≥99.5%, DCM ≥99.5%, chloroform ≥99.5%, DMSO ≥99.0% were purchased from VWR. N,N-diethyl-4-nitroaniline ≥98.0% was purchased from Alfa Aeser. Cyrene was supplied by Circa group. N-butylpyrrolidinone was supplied by Eastman chemicals. N,N-dimethylformamide 99.9% and N,N-dimethylacetamide 99.9% were purchased from Fischer. The flakes of Ultrason® E3020 P Polyarylethersulfone of 55,000 Da were obtained from INGE.BASF, Germany. The CALUX cell lines have been described previously.[1] They are based on human U2-OS cells (ATCC, HTB-96) stably transfected with an expression construct for the full-length human receptor under investigation, and a reporter construct consisting of multimerized responsive elements for the cognate receptor coupled to a minimal promoter element (TATA) and a luciferase gene. Cells were maintained as described previously,[2] using cell culture media and supplements from Fisher Scientific as described in the experimental procedures section. […]
as §1, §2, §3, §4
Subsequently, the luciferase signal was measured in a luminometer (InfinitePro coupled to a Connect Stacker, both TECAN). In order to be able to detect receptor antagonism, several assays were also performed in antagonistic mode. […]
The luminometer data was analysed as follows; the average of the triplicate wells was determined, and the average blank (DMSO) value was subtracted. […] For antagonist- and cytotoxicity experiments, PC20 values were determined instead, which was defined as the concentration where the test compound causes a 20% decrease in the basal signal, which was […]
as §5

SMILES: CCCCN(CC)C(=O)CCC(=O)N(CC)CCCC [EBSA, N,N′‐diethyl‐N,N′‐dibutylsuccindiamide]
- LEC PXR [1]: −5.0 Log M
- LEC PPARγ [2]: –

SMILES: CCCCN(CCCC)C(=O)CCC(=O)N(CCCC)CCCC [TBSA, N,N,N′,N′‐tetrabutylsuccindiamide]
- LEC PXR [1]: −6.1 Log M
- LEC PPARγ [2]: –

SMILES: CCCCN(C)C(=O)CCC(=O)N(C)CCCC [MBSA, N,N′‐dimethyl‐N,N′‐dibutylsuccindiamide]
- LEC PXR [1]: −3.9 Log M
- LEC PPARγ [2]: –

SMILES: CCCCN1CCCC1=O [NBP, N‐Butylpyrrolidinone, reference compound]
- LEC PXR [1]: −3.2 Log M
- LEC PPARγ [2]: –

SMILES: CN1CCCC1=O [NMP, N‐methyl‐2‐pyrrolidone, reference compound]
- LEC PXR [1]: –
- LEC PPARγ [2]: –
